Measured values from PMC9502272, “A Metabolomics Approach for Predicting OATP1B-Type Transporter-Mediated Drug–Drug Interaction Liabilities” (Pharmaceutics, 2022).
Counter-ions that a name gives are not always drawn.

Biological target: T1, Oatp1b2 (Mus musculus, UniProt Q9JJL3)
T1 sequence (Q9JJL3 1-689): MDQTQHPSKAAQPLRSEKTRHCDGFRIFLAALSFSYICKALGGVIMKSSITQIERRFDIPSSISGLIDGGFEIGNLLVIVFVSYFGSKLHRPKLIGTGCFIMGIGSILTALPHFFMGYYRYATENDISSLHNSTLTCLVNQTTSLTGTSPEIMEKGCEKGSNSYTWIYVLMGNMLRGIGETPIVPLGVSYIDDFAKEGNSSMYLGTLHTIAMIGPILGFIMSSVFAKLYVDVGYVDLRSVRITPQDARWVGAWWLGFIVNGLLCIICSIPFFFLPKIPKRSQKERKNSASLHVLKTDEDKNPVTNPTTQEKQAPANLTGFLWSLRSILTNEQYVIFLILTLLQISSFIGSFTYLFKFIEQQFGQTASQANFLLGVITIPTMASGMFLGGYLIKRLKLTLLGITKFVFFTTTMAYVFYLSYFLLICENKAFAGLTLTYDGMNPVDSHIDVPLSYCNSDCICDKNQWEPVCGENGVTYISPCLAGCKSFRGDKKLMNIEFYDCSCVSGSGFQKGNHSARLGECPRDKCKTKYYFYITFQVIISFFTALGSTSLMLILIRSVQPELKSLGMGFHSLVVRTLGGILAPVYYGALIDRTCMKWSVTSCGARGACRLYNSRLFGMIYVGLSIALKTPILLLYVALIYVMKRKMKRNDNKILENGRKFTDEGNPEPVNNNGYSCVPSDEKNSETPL
Assay: Untargeted metabolomics of plasma from untreated wild-type and Oatp1b2(−/−) mice
Conditions: for Fold of Change KO/WT: plasma of untreated Oatp1b2-deficient (KO) vs wild-type (WT) mice, semi-quantitative, positive = higher in KO, n = 6 per group; for Mean value KO: plasma of untreated Oatp1b2-deficient mice; for Mean value KO / Mean value WT: raw area counts rescaled to median = 1; for Mean value WT: plasma of untreated wild-type mice

## CC(C(=O)O)c1ccc(O)cc1 (stereo not drawn) [2-(4-hydroxyphenyl)propionate]
  Fold of Change KO/WT: 1.30
  Mean value KO: 1.16
  Mean value WT: .895

## CC(=O)Nc1ccc(C(=O)O)cc1 [4-acetamidobenzoate]
  Fold of Change KO/WT: 2.14
  Mean value KO: 1.46
  Mean value WT: .685

## O=C(O)CCCCCCCCCCCCCCC(=O)O [hexadecanedioate (C16-DC)]
  Fold of Change KO/WT: 2.10
  Mean value KO: 1.57
  Mean value WT: .749

## CCCCCCCCCCCCCCCC(=O)OC[C@@H](O)COP(=O)(O)OCC(O)CO (stereo partly drawn) [1-palmitoyl-GPG (16:0)]
  Fold of Change KO/WT: 5.40
  Mean value KO: 2.00
  Mean value WT: .371

## pregnenediol disulfate (C21H34O8S2)
  Fold of Change KO/WT: 2.14
  Mean value KO: 1.16
  Mean value WT: .540

## C=CC1=C(C)/C(=C/c2[nH]c(Cc3[nH]c(/C=C4\NC(=O)C(C)=C4C=C)c(C)c3CCC(=O)O)c(CCC(=O)O)c2C)NC1=O [bilirubin (Z,Z)]
  Fold of Change KO/WT: 5.25
  Mean value KO: 1.48
  Mean value WT: .282

## CCCCC/C=C\C/C=C\C/C=C\C/C=C\CCCC(=O)O[C@H](CO/C=C\CCCCCCCCCCCCCC)COP(=O)(O)OCCN [1-(1-enyl-palmitoyl)-2-arachidonoyl-GPE (P-16:0/20:4)]
  Fold of Change KO/WT: 1.34
  Mean value KO: 1.13
  Mean value WT: .839

## C[C@H](CCC(=O)O)[C@H]1CC[C@H]2[C@@H]3[C@@H](O)C[C@@H]4C[C@H](O)CC[C@]4(C)[C@H]3C[C@H](O)[C@]12C [ursocholate]
  Fold of Change KO/WT: 33.8
  Mean value KO: 5.10
  Mean value WT: .151

## CCCCC/C=C\C/C=C\C/C=C\C/C=C\CCCC(=O)OC[C@@H](O)COP(=O)([O-])OCC[N+](C)(C)C [1-arachidonoyl-GPC (20:4n6)]
  Fold of Change KO/WT: 1.63
  Mean value KO: 1.27
  Mean value WT: .775

## O=C(O)Cc1cn(C2O[C@H](CO)[C@@H](O)[C@H]2O)cn1 (stereo partly drawn) [1-ribosyl-imidazoleacetate]
  Fold of Change KO/WT: 1.64
  Mean value KO: 1.34
  Mean value WT: .818

## CC(C)CCC(=O)NCC(=O)O [isocaproylglycine]
  Fold of Change KO/WT: 1.57
  Mean value KO: 1.28
  Mean value WT: .815

## CCCCCCCCCCCCCCCC/C=C\OC[C@@H](O)COP(=O)(O)OCCN [1-(1-enyl-stearoyl)-GPE (P-18:0)]
  Fold of Change KO/WT: 1.72
  Mean value KO: 1.28
  Mean value WT: .747

## CCCCCCCC/C=C\CCCCCCCC(=O)O[C@H](CC(=O)[O-])C[N+](C)(C)C [oleoylcarnitine (C18:1)]
  Fold of Change KO/WT: 1.56
  Mean value KO: 1.40
  Mean value WT: .900

## octadecenedioate (C18:1-DC)
  Fold of Change KO/WT: 2.66
  Mean value KO: 1.45
  Mean value WT: .544

## tauroursodeoxycholic acid sulfate (2)
  Fold of Change KO/WT: 2.18
  Mean value KO: 1.12
  Mean value WT: .513

## CC(C)CC(O)C(=O)O (stereo not drawn) [alpha-hydroxyisocaproate]
  Fold of Change KO/WT: 2.29
  Mean value KO: 1.80
  Mean value WT: .787

## Cc1ncc(CO)c(CN)c1O [pyridoxamine]
  Fold of Change KO/WT: 1.77
  Mean value KO: 1.42
  Mean value WT: .805

## CCCCCCCCCCCCCC/C=C\OC[C@H](COP(=O)([O-])OCC[N+](C)(C)C)OC(=O)CCCCCCCCCCCCCCC [1-(1-enyl-palmitoyl)-2-palmitoyl-GPC (P-16:0/16:0)]
  Fold of Change KO/WT: 1.24
  Mean value KO: 1.14
  Mean value WT: .919

## O=C(O)CCCCCCCCC(=O)O [sebacate (C10-DC)]
  Fold of Change KO/WT: 1.44
  Mean value KO: 1.20
  Mean value WT: .833

## linolenoylcarnitine (C18:3)
  Fold of Change KO/WT: 1.91
  Mean value KO: 1.51
  Mean value WT: .794

## CCCCC/C=C\C/C=C\CCCCCCCC(=O)OC[C@@H](O)COP(=O)(O)OCCN [1-linoleoyl-GPE (18:2)]
  Fold of Change KO/WT: 1.94
  Mean value KO: 1.42
  Mean value WT: .736

## O=C(O)CCCCCCCCC(O)CC(=O)O (stereo not drawn) [3-hydroxydodecanedioate]
  Fold of Change KO/WT: 4.32
  Mean value KO: 1.64
  Mean value WT: .380

## C=CC1=C(C)/C(=C/C2=NC(=C\c3[nH]c(/C=C4\NC(=O)C(C)=C4C=C)c(C)c3CCC(=O)O)/C(CCC(=O)O)=C2C)NC1=O [biliverdin]
  Fold of Change KO/WT: 4.09
  Mean value KO: 1.84
  Mean value WT: .450

## C=CC1=C(C)/C(=C/c2[nH]c(Cc3[nH]c(/C=C4\NC(=O)C(C)=C4C=C)c(C)c3CCC(=O)O)c(CCC(=O)O)c2C)NC1=O [bilirubin (E,E)]
  Fold of Change KO/WT: 6.12
  Mean value KO: 1.17
  Mean value WT: .191

## CC(=O)N[C@@H](CCCCNC(N)=O)C(=O)O [N-acetylhomocitrulline]
  Fold of Change KO/WT: 1.35
  Mean value KO: 1.17
  Mean value WT: .861

## CC(O)(CCO)CC(=O)O (stereo not drawn) [mevalonate]
  Fold of Change KO/WT: 1.24
  Mean value KO: 1.15
  Mean value WT: .925

## CCCCCCCCCCCCCCCC(=O)OC[C@@H](O)COP(=O)(O)OCCN [1-palmitoyl-GPE (16:0)]
  Fold of Change KO/WT: 1.73
  Mean value KO: 1.33
  Mean value WT: .765

## CCCCCCCCCCCCCCCC(=O)OC[C@H](COP(=O)(O)OCCN)OC(=O)CCCCCCCCCCCCCCC [1,2-dipalmitoyl-GPE (16:0/16:0)]
  Fold of Change KO/WT: 2.02
  Mean value KO: 1.34
  Mean value WT: .664

## CCCCC/C=C\C/C=C\CCCCCCCC(=O)O[C@H](CO/C=C\CCCCCCCCCCCCCC)COP(=O)(O)OCCN [1-(1-enyl-palmitoyl)-2-linoleoyl-GPE (P-16:0/18:2)]
  Fold of Change KO/WT: 1.34
  Mean value KO: 1.16
  Mean value WT: .862

## CCCCCCCCCCCCCCC=COCC(O)COP(=O)([O-])OCC[N+](C)(C)C (stereo not drawn) [1-(1-enyl-palmitoyl)-GPC (P-16:0)]
  Fold of Change KO/WT: 1.59
  Mean value KO: 1.26
  Mean value WT: .795

## Nc1ncnc2c1ncn2C1OC(COP(=O)(O)O)C(O)C1O (stereo not drawn) [adenosine 5'-monophosphate (AMP)]
  Fold of Change KO/WT: 1.12
  Mean value KO: 1.04
  Mean value WT: .927

## CCCCC/C=C\C/C=C\C/C=C\C/C=C\CCCC(=O)O[C@H](COC(=O)CCCCCCC/C=C\CCCCCCCC)COP(=O)(O)OC1C(O)C(O)C(O)C(O)C1O (stereo partly drawn) [1-oleoyl-2-arachidonoyl-GPI (18:1/20:4)]
  Fold of Change KO/WT: 2.01
  Mean value KO: 1.37
  Mean value WT: .681

## CCCCCC(=O)NCC(=O)O [hexanoylglycine]
  Fold of Change KO/WT: 1.59
  Mean value KO: 1.40
  Mean value WT: .880

## C[N+]1(C)CCCC[C@H]1C(=O)[O-] [homostachydrine]
  Fold of Change KO/WT: 1.19
  Mean value KO: 1.09
  Mean value WT: .915

## CCCCCCC=CCCCCCCCC(=O)OC(CC(=O)[O-])C[N+](C)(C)C (stereo not drawn) [palmitoleoylcarnitine (C16:1)]
  Fold of Change KO/WT: 1.63
  Mean value KO: 1.54
  Mean value WT: .943

## CCCCC/C=C\C/C=C\CCCCCCCC(=O)OC[C@@H](O)COP(=O)(O)OC1[C@H](O)[C@H](O)C(O)[C@H](O)[C@H]1O (stereo partly drawn) [1-linoleoyl-GPI (18:2)]
  Fold of Change KO/WT: 1.65
  Mean value KO: 1.27
  Mean value WT: .765

## CC/C=C\C/C=C\C/C=C\CCCCCCCC(=O)O[C@H](COC(=O)CCCCCCC/C=C\C/C=C\CCCCC)COP(=O)([O-])OCC[N+](C)(C)C [1-linoleoyl-2-linolenoyl-GPC (18:2/18:3)]
  Fold of Change KO/WT: 1.51
  Mean value KO: 1.40
  Mean value WT: .923

## CCCCCCC(=O)NCC(=O)O [heptanoyl glycine]
  Fold of Change KO/WT: 1.52
  Mean value KO: 1.32
  Mean value WT: .868

## O=S(=O)(O)Oc1c[nH]c2ccccc12 [3-indoxyl sulfate]
  Fold of Change KO/WT: 1.48
  Mean value KO: 1.19
  Mean value WT: .804

## CCCCCC/C=C\CCCCCCCC(=O)OC[C@@H](O)COP(=O)([O-])OCC[N+](C)(C)C [1-palmitoleoyl-GPC (16:1)]
  Fold of Change KO/WT: 1.97
  Mean value KO: 1.31
  Mean value WT: .666

## O=C(O)CC[C@H](NC(=O)Cc1ccccc1)C(=O)O [phenylacetylglutamate]
  Fold of Change KO/WT: 1.46
  Mean value KO: 1.24
  Mean value WT: .850

## CCCCCC/C=C\CCCC(=O)OC(CC(=O)[O-])C[N+](C)(C)C (stereo not drawn) [5-dodecenoylcarnitine (C12:1)]
  Fold of Change KO/WT: 1.46
  Mean value KO: 1.37
  Mean value WT: .936

## eicosadienamide (20:2)
  Fold of Change KO/WT: 1.46
  Mean value KO: 1.27
  Mean value WT: .869
